Results on 1 compound are retold here after patent US5445941A, “Method for screening anti-osteoporosis agents” (Eli Lilly and Company, priority 1993, dated 1995).

The test system of experiment [1] is TGFβ-3 promoter. The experiment is described as follows: CAT reporter expression, TGFβ-3 promoter (pB-499), MG63 cells cotransfected with pRSVER.
Method: (§1) Co-transfection experiments were performed in MG63 (human osteosarcoma) cells, using the ProFection Mammalian Transfection System (Promega). […] The cells were then refed with fresh 3:1 media containing 10% csFBS. Compounds to be evaluated for their ability to modulate reporter gene expression were added at the appropriate times and assayed as described below.
(§2) Cultures of MG63 cells were transiently co-transfected with pRSVER plasmid and either phTG12, pTGF-1, or pB2-499 using the ProFection system (Promega). For each transfected cell culture, DNA-containing calcium phosphate precipitates were added dropwise to each culture dish and mixed thoroughly in the media. The pH of the media was carefully maintained between pH 7.2 and pH 7.4. Transfected cell cultures were then incubated overnight in a 5% CO2 atmosphere at 37° C. For all cultures, the precipitate was removed after overnight incubation by aspirating the media from the culture dishes, followed by rinsing each dish twice with D-PBS. For each cotransfected cell line, the buffer was replaced with 10 ml fresh medium containing 10% csFBS and one of the following compositions:
(§3) a. 10 μl ethanol (hormone vehicle)=control;
(§4) b. 10 μl 17β-estradiol (Sigma) ("estradiol") at a concentration of 10^-4 M in ethanol;
(§5) d. 10 μl Tamoxifen (Sigma) at a concentration of 10^-4 M in ethanol.
(§6) After 24 h incubation with these hormonal preparations (or the vehicle control), cells were washed twice with D-PBS. The cells were then scraped from the culture dishes using a rubber policeman and 1 ml of D-PBS. Cells were collected by centrifugation at 8,000 rpm for 2 minutes in a tabletop centrifuge (MicroMax Model, IEC, Newark, N.Y.). The supernatant was removed and the cell pellets were resuspended in 150 μL of a 0.25M Tris-HCl solution (pH 7.8). Cells were lysed by three cycles of freezing in a dry ice/ethanol bath and thawing in a water bath at 37° C. water bath (for 3 minutes each cycle). Lysed cell preparations were centrifuged at 15,000 rpm for 5 minutes at 4° C. to remove cell debris. Supernatants containing the soluble cell lysate were transferred to a new set of tubes for assaying chloramphenicol acetyltransferase (CAT) activity.
Before performing CAT assays on such cell lysates, the protein content of each lysate was first determined using a commercially-available assay (BioRad Laboratories, Richmond, Calif.). […]
Experiment [2] has as its system TGFβ-3 promoter. The experiment can be described thus: ER dependent induction of TGFβ-3 promoter (pB2-499) in MG63 cells. The class given is cell-based, human. An excerpt:
It was known in the prior art that the ability of both estrogens and antiestrogens to influence TGFβ production is dependent on the expression of estrogen receptor (ER), but the level at which this influence is exerted was not known (i.e. transcriptional, translational or post-translational). A series of experiments were therefore performed to investigate the putative dependence on ER expression of induction of reporter gene expression using the TGFβ promoter-containing constructs of the invention.
Cultures of MG63 were prepared for co-transfection as in Example IV. One such culture was co-transfected with pB2-499 and pRSVER and another was co-transfected with pB2499 and pRSV vector plasmid (as a control).
(b) 17β-estradiol (10^-7 M)

For experiment [3], the system named is estrogen responsive elements. The settings on record: in vitro; cited from earlier work.
The next experiment concerns TGFβ-2 mRNA. The settings on record: T-47D and MDA-MB-231; cited from earlier work.
Another experiment has as its system TGFβ-1 promoter. The experiment is described as follows: CAT reporter expression, TGFβ-1 promoter (phTG12), MG63 cells cotransfected with pRSVER.
[4] abbreviates: Homo sapiens, MG-63, 24 h, read-out: Fold Ind.

Method for TGFβ-1 promoter: as §1, §2, §3, §4, §5, §6
Before performing CAT assays on such cell lysates, the protein content of each lysate was first determined using a commercially-available assay (BioRad Laboratories, Richmond, Calif.). An amount of each cell lysate containing 100 μg total protein was then mixed with CAT assay buffer (0.4M Tris-HCl (pH 7.8)/ 0.5 mM acetyl-CoA (Boehringer Mannheim)/ 0.1 μCi D-threo-(dichloroacetyl-1,2-[^14 C]-chloramphenicol) for 15 hours. After this incubation, reactions were stopped by vigorously extracting the reaction mixture with 900 μL ethyl acetate. The organic and aqueous phases were separated by brief centrifugation at 14,000 rpm for 1 minute, and approximately 800 μL of the organic phase was transferred to a new set of tubes. Ethyl acetate was evaporated to concentrate the CAT-catalyzed reaction products.
Acetylated and unacetylated chloramphenicol species were resolved by thin layer chromatography using a mixture of 95:5 (v/v) chloroform:methanol as the ascending buffer.

For `C[C@]12CC[C@@H]3c4ccc(O)cc4CC[C@H]3[C@@H]1CC[C@@H]2O` [estradiol, 17β-estradiol], the fold induction at 0.1 µM in the experiment with TGFβ-3 promoter [1] (setting [4]) was 2.8; with TGFβ-1 promoter (setting [4]), 0.7. The “Act. (relative CAT activity)” value in the experiment with TGFβ-3 promoter [1] (TGFβ-3 promoter, 10 μl of 10^-4 M in 10 ml medium, 24 h, control 0.7) was 2.1; in the experiment with TGFβ-1 promoter (TGFβ-1 promoter, 10 μl of 10^-4 M in 10 ml medium, 24 h, control […]), 4.7. For the same compound, the “effect of lack of ER expression (in words)” value in the experiment with TGFβ-3 promoter [2] (lack of ER expression) is reported as “virtually abolishes expression of TGFβ-3”. Also, in the experiment with TGFβ-3 promoter [2] (no ER (pRSV vector), estradiol 10^-7 M, raloxifene 2×10^-6 M, vehicle 0.9), the “reporter gene expression, Control Plasmid” value was 1.0. Besides, in the experiment with TGFβ-3 promoter [2] (pRSVER, estradiol 10^-7 M, raloxifene 2×10^-6 M, vehicle 1.3), the “reporter gene expression, ER Expression Plasmid” value worked out at 4.6. Further, the “binding of estrogen receptor complex to estrogen responsive elements (in words)” value in experiment [3] is given as “bind in vitro to DNA binding domains called estrogen responsive elements”. Besides, the “TGFβ-2 mRNA expression (in words)” value with TGFβ-2 mRNA is recorded as “reduced TGFβ-2 mRNA expression”. Also, in the experiment on TGFβ-1 promoter (positions -1032 to +727), the “response of the TGFβ-1 promoter region (in words)” value is “no response”.
